Laboratory results reported in patent publication US10987359B2, “Oxadiazepinone derivatives and methods of treating hepatitis B infections” (priority 2016, dated 2021).
Read-outs that look alike come from different tables or passages of the source.

Tested on: HBV
Experiment: HBV replication inhibition assay (BDNA assay) in HepG2.2.15 cells
Type: cell-based
Conditions: Hepatitis B virus
In short: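 Supernatant encapsidated HBV DNA was measured by bDNA after DNase digestion and proteinase K release. Stably HBV-integrated HepG2.2.15 cells had two 3-day compound exposures (0.5% DMSO). Signals were background-subtracted and normalized to DMSO wells, and EC50 was obtained by four-parameter fit.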

[1] = HepG2.2.15, HBV replication assay (BDNA assay), HepG2.2.15 cells, read-out: DNA EC50

Row | Compound | EC50 [1] | EC50 (HepG2.2.15, read-out: DNA EC50)
1 | CN(CC(F)F)C(=O)C1Cn2nc3c(c2C(=O)N(C)O1)CN(C(=O)Nc1ccc(F)c(C#N)c1F)CC3 (centres unmarked) [Compound 161, N10-(3-cyano-2,4-difluorophenyl)-N4-(2,2-difluoroethyl)-N4,2-dimethyl-1-oxo-1,4,5,8,9,11-hexahydropyrido[4′,3′:3,4]pyrazolo[5,1-d][1,2,5]oxadiazepine-4,10(2H)-dicarboxamide] | 1 to 100 nM | 
2 | CC(=O)NCC1Cn2nc3c(c2C(=O)N(C)O1)CN(C(=O)Nc1ccc(F)c(Cl)c1)CC3 (centres unmarked) [Compound 162, -(acetamidomethyl)-N-(3-chloro-4-fluoro-phenyl)-2-methyl-1-oxo-5,8,9,11-tetrahydro-4H-pyrido[2,3]pyrazolo[2,4-d][1,2,5]oxadiazepine-10-carboxamide] | 1 to 100 nM | 
3 | CN1OC(CNC(=O)C(F)(F)F)Cn2nc3c(c2C1=O)CN(C(=O)Nc1ccc(F)c(Cl)c1)CC3 (centres unmarked) [Compound 163, N-(3-chloro-4-fluorophenyl)-2-methyl-1-oxo-4-((2,2,2-trifluoroacetamido)methyl)-1,4,5,8,9,11-hexahydropyrido[4′,3′:3,4]pyrazolo[5,1-d][1,2,5]oxadiazepine-10(2H)-carboxamide] |  | 1 to 100 nM
4 | CN1OC(CNS(=O)(=O)C(F)(F)F)Cn2nc3c(c2C1=O)CN(C(=O)Nc1ccc(F)c(Cl)c1)CC3 (centres unmarked) [Compound 164, N-(3-chloro-4-fluorophenyl)-2-methyl-1-oxo-4-(((trifluoromethyl)sulfonamido)methyl)-1,4,5,8,9,11-hexahydropyrido[4′,3′:3,4]pyrazolo[5,1-d][1,2,5]oxadiazepine-10(2H)-carboxamide] | 100 to 500 nM | 
5 | CN1OC(CNS(C)(=O)=O)Cn2nc3c(c2C1=O)CN(C(=O)Nc1ccc(F)c(Cl)c1)CC3 (centres unmarked) [Compound 165, N-(3-chloro-4-fluorophenyl)-2-methyl-4-(methylsulfonamidomethyl)-1-oxo-1,4,5,8,9,11-hexahydropyrido[4′,3′:3,4]pyrazolo[5,1-d][1,2,5]oxadiazepine-10(2H)-carboxamide] | 1 to 100 nM | 
6 | COC(=O)NCC1Cn2nc3c(c2C(=O)N(C)O1)CN(C(=O)Nc1ccc(F)c(Cl)c1)CC3 (centres unmarked) [Compound 166, methyl((10-((3-chloro-4-fluorophenyl)carbamoyl)-2-methyl-1-oxo-1,2,4,5,8,9,10,11-octahydropyrido[4′,3′:3,4]pyrazolo[5,1-d][1,2,5]oxadiazepin-4-yl)methyl)carbamate] | 1 to 100 nM | 
7 | CNC(=O)C1Cn2nc3c(c2C(=O)N(C)O1)CN(C(=O)Nc1ccc(F)c(C#N)c1F)CC3 (centres unmarked) [Compound 195, N10-(3-cyano-2,4-difluorophenyl)-N4,2-dimethyl-1-oxo-1,4,5,8,9,11-hexahydropyrido[4′,3′:3,4]pyrazolo[5,1-d][1,2,5]oxadiazepine-4,10(2H)-dicarboxamide] | 1 to 100 nM | 
8 | CCC(=O)NCC1Cn2nc3c(c2C(=O)N(C)O1)CN(C(=O)Nc1ccc(F)c(Cl)c1)CC3 (centres unmarked) [Compound 197, N-(3-chloro-4-fluorophenyl)-2-methyl-1-oxo-4-(propionamidomethyl)-1,4,5,8,9,11-hexahydropyrido[4′,3′:3,4]pyrazolo[5,1-d][1,2,5]oxadiazepine-10(2H)-carboxamide] | 1 to 100 nM | 
9 | CN1OC(CNC(=O)C2CC2)Cn2nc3c(c2C1=O)CN(C(=O)Nc1ccc(F)c(Cl)c1)CC3 (centres unmarked) [Compound 198, N-(3-chloro-4-fluorophenyl)-4-(cyclopropanecarboxamidomethyl)-2-methyl-1-oxo-1,4,5,8,9,11-hexahydropyrido[4′,3′:3,4]pyrazolo[5,1-d][1,2,5]oxadiazepine-10(2H)-carboxamide] | 1 to 100 nM | 
10 | CN1OC(CNC(=O)CC(F)(F)F)Cn2nc3c(c2C1=O)CN(C(=O)Nc1ccc(F)c(Cl)c1)CC3 (centres unmarked) [Compound 199, N-(3-chloro-4-fluorophenyl)-2-methyl-1-oxo-4-((3,3,3-trifluoropropanamido)methyl)-1,4,5,8,9,11-hexahydropyrido[4′,3′:3,4]pyrazolo[5,1-d][1,2,5]oxadiazepine-10(2H)-carboxamide] | 1 to 100 nM | 
11 | CC(C)C(=O)NCC1Cn2nc3c(c2C(=O)N(C)O1)CN(C(=O)Nc1ccc(F)c(Cl)c1)CC3 (centres unmarked) [Compound 200, N-(3-chloro-4-fluorophenyl)-4-(isobutyramidomethyl)-2-methyl-1-oxo-1,4,5,8,9,11-hexahydropyrido[4′,3′:3,4]pyrazolo[5,1-d][1,2,5]oxadiazepine-10(2H)-carboxamide] | 1 to 100 nM | 
12 | CN1OC(CNC(=O)C(C)(C)C)Cn2nc3c(c2C1=O)CN(C(=O)Nc1ccc(F)c(Cl)c1)CC3 (centres unmarked) [Compound 201, N-(3-chloro-4-fluorophenyl)-2-methyl-1-oxo-4-(pivalamidomethyl)-1,4,5,8,9,11-hexahydropyrido[4′,3′:3,4]pyrazolo[5,1-d][1,2,5]oxadiazepine-10(2H)-carboxamide] | 1 to 100 nM | 
13 | CCOC(=O)NCC1Cn2nc3c(c2C(=O)N(C)O1)CN(C(=O)Nc1ccc(F)c(Cl)c1)CC3 (centres unmarked) [Compound 202, ethyl ((10-((3-chloro-4-fluorophenyl)carbamoyl)-2-methyl-1-oxo-1,2,4,5,8,9,10,11-octahydropyrido[4′,3′:3,4]pyrazolo[5,1-d][1,2,5]oxadiazepin-4-yl)methyl)carbamate] | 1 to 100 nM | 
14 | CN1OC(CNC(=O)OC2CC2)Cn2nc3c(c2C1=O)CN(C(=O)Nc1ccc(F)c(Cl)c1)CC3 (centres unmarked) [Compound 203, cyclopropyl ((10-((3-chloro-4-fluorophenyl)carbamoyl)-2-methyl-1-oxo-1,2,4,5,8,9,10,11-octahydropyrido[4′,3′:3,4]pyrazolo[5,1-d][1,2,5]oxadiazepin-4-yl)methyl)carbamate] | 1 to 100 nM | 
15 | CN(C)C(=O)NCC1Cn2nc3c(c2C(=O)N(C)O1)CN(C(=O)Nc1ccc(F)c(Cl)c1)CC3 (centres unmarked) [Compound 204, N-(3-chloro-4-fluorophenyl)-4-((3,3-dimethylureido)methyl)-2-methyl-1-oxo-1,4,5,8,9,11-hexahydropyrido[4′,3′:3,4]pyrazolo[5,1-d][1,2,5]oxadiazepine-10(2H)-carboxamide] | 1 to 100 nM | 
16 | CN1OC(CNC(=O)CC#N)Cn2nc3c(c2C1=O)CN(C(=O)Nc1ccc(F)c(Cl)c1)CC3 (centres unmarked) [Compound 205, N-(3-chloro-4-fluorophenyl)-4-((2-cyanoacetamido)methyl)-2-methyl-1-oxo-1,4,5,8,9,11-hexahydropyrido[4′,3′:3,4]pyrazolo[5,1-d][1,2,5]oxadiazepine-10(2H)-carboxamide] | 1 to 100 nM | 
17 | CN1OC(CNC(=O)CO)Cn2nc3c(c2C1=O)CN(C(=O)Nc1ccc(F)c(Cl)c1)CC3 (centres unmarked) [Compound 206, N-(3-chloro-4-fluorophenyl)-4-((2-hydroxyacetamido)methyl)-2-methyl-1-oxo-1,4,5,8,9,11-hexahydropyrido[4′,3′:3,4]pyrazolo[5,1-d][1,2,5]oxadiazepine-10(2H)-carboxamide] | 1 to 100 nM | 
18 | CN1OC(CNC(=O)OCC(F)(F)F)Cn2nc3c(c2C1=O)CN(C(=O)Nc1ccc(F)c(Cl)c1)CC3 (centres unmarked) [Compound 207, 2,2,2-trifluoroethyl ((10-((3-chloro-4-fluorophenyl)carbamoyl)-2-methyl-1-oxo-1,2,4,5,8,9,10,11-octahydropyrido[4′,3′:3,4]pyrazolo[5,1-d][1,2,5]oxadiazepin-4-yl)methyl)carbamate] | 1 to 100 nM | 
19 | CCS(=O)(=O)NCC1Cn2nc3c(c2C(=O)N(C)O1)CN(C(=O)Nc1ccc(F)c(Cl)c1)CC3 (centres unmarked) [Compound 208, N-(3-chloro-4-fluorophenyl)-4-(ethylsulfonamidomethyl)-2-methyl-1-oxo-1,4,5,8,9,11-hexahydropyrido[4′,3′:3,4]pyrazolo[5,1-d][1,2,5]oxadiazepine-10(2H)-carboxamide] | 1 to 100 nM | 
20 | CN1OC(CO)Cn2nc3c(c2C1=O)CC(C(=O)Nc1ccc(F)c(Cl)c1)CC3 (centres unmarked) [Compound 209, N-(3-chloro-4-fluoro-phenyl)-4-(hydroxymethyl)-2-methyl-1-oxo-4,5,8,9,10,11-hexahydro-[1,2,5]oxadiazepino[5,4-b]indazole-10-carboxamide] | 500 to 1000 nM | 
21 | C[C@@H]1Cc2nn3c(c2CN1C(=O)Nc1ccc(F)c(C#N)c1)C(=O)N(C)O[C@H](COCC(F)(F)F)C3 [Compound 210, (4S,9R)—N-(3-cyano-4-fluorophenyl)-2,9-dimethyl-1-oxo-4-((2,2,2-trifluoroethoxy)methyl)-1,4,5,8,9,11-hexahydropyrido[4′,3′:3,4]pyrazolo[5,1-d][1,2,5]oxadiazepine-10(2H)-carboxamide] | 1 to 100 nM | 
22 | C[C@@H]1Cc2nn3c(c2CN1C(=O)Nc1ccc(F)c(C#N)c1)C(=O)N(C)OC(C)(C)C3 [Compound 213, (R)—N-(3-cyano-4-fluorophenyl)-2,4,4,9-tetramethyl-1-oxo-1,4,5,8,9,11-hexahydropyrido[4′,3′:3,4]pyrazolo[5,1-d][1,2,5]oxadiazepine-10(2H)-carboxamide] | 1 to 100 nM | 
23 | C[C@@H]1Cc2nn3c(c2CN1C(=O)Nc1ccc(F)c(C(F)(F)F)c1)C(=O)N(C)OC(C)(C)C3 [Compound 214, (5R)—N-[4-Fluoro-3-(trifluoromethyl)phenyl]-5,11,11,13-tetramethyl-14-oxo-12-oxa-4,8,9,13-tetrazatricyclo[7.5.0.0^2.7]tetradeca-1,7-diene-4-carboxamide] | 1 to 100 nM | 
24 | CN1NCCn2nc3c(c2C1=O)CN(C(=O)Nc1ccc(F)c(Cl)c1)CC3 [Compound 216, N-(3-Chloro-4-fluoro-phenyl)-2-methyl-1-oxo-3,4,5,8,9,11-hexahydropyrido[2,3]pyrazolo[2,4-c][1,2,5]triazepine-10-carboxamide] | 100 to 500 nM | 
25 | CN1CCn2nc3c(c2C(=O)N1C)CN(C(=O)Nc1ccc(F)c(Cl)c1)CC3 [Compound 217, N-(3-Chloro-4-fluorophenyl)-2,3-dimethyl-1-oxo-1,2,3,4,5,8,9,11-octahydro-10H-pyrido[4′,3′:3,4]pyrazolo[5,1-d][1,2,5]triazepine-10-carboxamide] | 1 to 100 nM | 
26 | C=CCN1CCn2nc3c(c2C(=O)N1C)CN(C(=O)Nc1ccc(F)c(C#N)c1)[C@H](C)C3 [Compound 218, (R)-3-allyl-N-(3-cyano-4-fluorophenyl)-2,9-dimethyl-1-oxo-1,2,3,4,5,8,9,11-octahydro-10H-pyrido[4′,3′:3,4]pyrazolo[5,1-d][1,2,5]triazepine-10-carboxamide] | 1 to 100 nM | 
